In patent US8030547B2, “Gene coding for acetolactate synthase” (priority 2002, dated 2011):

Columns and labels:
[1] = system: Rb line resistant mutant rice culture cells; assay: Growth of rice culture cells (relative wet weight of callus) in the presence of herbicide, Rb line; assay type: cell-based, Oryza sativa var. Kinmaze
Method: (§1) Next, endosperm portions were removed from the callus induced on the medium, and then subculture was performed. Then, part of the obtained calli was sub-cultured, that is, cultured successively once per two weeks in a liquid medium (the composition is the same as in that shown in Table 3, but not supplemented with Gelrite) supplemented with 1 μM bispyribac-sodium (one type of PC herbicides). Two to 6 weeks later the culture cells started to wither. About 2 months later, a plurality of non-discolored cell masses that were thought to be conducting cell division were obtained from among culture cell populations most of which had died and became discolored brown. These cell masses were isolated and cultured, so that a plurality of cell lines that can proliferate in the presence of 2 μM bispyribac-sodium were obtained. […]
(§2) Approximately 1.5 g (wet weight) of the resistant mutant was transplanted into a 200 ml Erlenmeyer flask supplemented with 50 ml of a MS-2,4-D liquid medium and bispyribac-sodium at a certain concentration, followed by culturing at approximately 27° C. for a certain period. The wet weight of the callus was measured periodically. The relative amount of increase was determined based on the wet weight of the transplanted resistant mutant. In addition, the experiment was performed three times with different bispyribac-sodium concentrations, and the standard error was calculated. […]

[2] = molecular target: T1, mutant ALS protein of Rb line (Oryza sativa subsp. japonica, UniProt Q6K2E8, P171H, form not given); assay: Herbicide sensitivity of partially purified ALS protein (ALS activity inhibition), Rb line; assay type: biochemical, Oryza sativa var. Kinmaze; conditions: read-out: I50 (nM) Rb; partially purified ALS, 30° C., probit analysis
T1 construct: other: partially purified ALS, 30° C., probit analysis
T1 sequence (Q6K2E8 whole entry P171H/W548L, form open): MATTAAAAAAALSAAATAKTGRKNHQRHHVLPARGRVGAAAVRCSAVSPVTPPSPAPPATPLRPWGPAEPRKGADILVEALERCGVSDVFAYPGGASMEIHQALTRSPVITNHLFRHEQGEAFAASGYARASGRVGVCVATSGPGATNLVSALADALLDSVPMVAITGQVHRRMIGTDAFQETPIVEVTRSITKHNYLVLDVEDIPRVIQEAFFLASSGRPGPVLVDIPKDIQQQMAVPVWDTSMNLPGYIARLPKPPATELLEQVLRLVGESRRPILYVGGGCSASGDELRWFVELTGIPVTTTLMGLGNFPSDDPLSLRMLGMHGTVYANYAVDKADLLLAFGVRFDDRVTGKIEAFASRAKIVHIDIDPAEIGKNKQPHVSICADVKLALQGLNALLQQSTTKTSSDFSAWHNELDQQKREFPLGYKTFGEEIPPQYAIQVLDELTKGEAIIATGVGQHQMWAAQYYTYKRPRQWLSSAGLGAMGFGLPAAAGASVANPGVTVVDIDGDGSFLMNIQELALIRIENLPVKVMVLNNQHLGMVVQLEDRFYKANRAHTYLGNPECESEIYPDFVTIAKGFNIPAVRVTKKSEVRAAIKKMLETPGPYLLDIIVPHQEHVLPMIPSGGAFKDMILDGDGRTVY
Method: (§3) First, 200 g or more of resistant mutant was prepared by a liquid culture method (no supplementation with bispyribac-sodium), using a composition as shown in Table 3 excluding Gelrite. Then, about 150 g of the resistant mutant was homogenized using Hiscotron in a volume of buffer-1 [100 mM potassium phosphate buffer (pH 7.5) containing 20% (v/v) glycerol, […] thiamin pyrophosphate (TPP), 10 μM flavin adenine dinucleotide (FAD), 0.5 mM MgCl2, and a volume of polyvinyl polypyrrolidone one-tenth that of tissue volume] 3-fold greater than tissue volume. The homogenate was filtered through nylon gauze, and then centrifuged at 15000×g for 20 minutes. Ammonium sulfate was added to the centrifuged supernatant to 50% saturation, and then allowed to stand in ice for approximately 1 hour. The mixture was again centrifuged at 15000×g for 20 minutes, and then the precipitated fraction was dissolved in approximately 30 ml of buffer-2 [10 mM Tris hydrochloric acid buffer (pH 7.5) containing 20% (v/v) glycerol, 0.5 mM TPP and 0.5 mM MgCl2]. The mixture was again centrifuged at 15000×g for 20 minutes, and then the supernatant fraction was applied to a Sephadex G-25 (Amersham Bioscience). About 40 ml of the fraction that had passed through the column was collected as a crude enzyme solution.
(§4) Next, the protein concentration of the crude enzyme solution was measured by the Bradford method according to the manual of Bio-Rad Protein Assay. The crude enzyme solution was then filtered through a Whatman filter (Whatman), and then the crude enzyme solution in an appropriate protein amount (10 to 15 ml) was applied to three vertically-connected HiTrap Q columns (Amersham Bioscience) using a FPLC device (Amersham Bioscience). After protein component was adsorbed using HiTrap Q, unadsorbed fractions were washed out using buffer-2 having a volume 3 to 5 fold greater than the bed volume. Then, the adsorbed protein component was eluted using an eluate having a volume 10 fold greater than the bed volume (150 ml). Here, the eluate was prepared by dissolving KCl with a linear concentration gradient (0 to 0.4 M) into buffer-2. The eluate containing the eluted protein component was apportioned, 5 ml each, into a plurality of test tubes for apportioning. Further, to stabilize ALS protein contained in the eluted protein component, 0.5 ml of buffer-2 containing 20 mM sodium pyruvate had been previously added to each test tube for apportioning.
(§5) ALS activity resulting from the mutant ALS protein contained in the eluted fractions apportioned into each test tube for apportioning was measured as follows. A reaction solution to be used in a measurement reaction was prepared by mixing an eluted fraction to be measured with a solution comprising 20 mM sodium pyruvate, 0.5 mM TPP, 0.5 mM MgCl2, 10 μM FAD and 20 mM potassium phosphate buffer (pH 7.5). One ml of this reaction solution was used. After the eluted fraction to be measured was added, the measurement reaction was performed at 30° C. for 40 to 60 minutes. Then, the reaction was stopped by addition of 0.1 ml of 6N sulfuric acid (or 0.25 N sodium hydroxide).
(§6) After the reaction was stopped, the reaction solution was incubated at 60° C. for 10 minutes, thereby converting acetolactate contained in the reaction solution to acetoin.
(§7) Then, to quantify acetoin contained in the reaction solution, 1 ml of 0.5% (w/v) creatine and 1 ml of 5% (w/v) α-naphthol dissolved in 2.5 N sodium hydroxide was added to the reaction solution, followed by incubation at 37° C. for 10 minutes. Acetoin was then quantified by color comparison of the absorbance (at 525 nm) of the reaction solution, thereby evaluating ALS activity. In addition, since the reaction solution contained a small amount of sodium pyruvate, reaction time 0 was used as control.
(§8) Using the enzyme solution containing the mutant ALS protein, sensitivity of the mutant ALS protein to bispyribac-sodium, chlorsulfuron and imazaquin was examined. […]

[3] = system: mutant ALS protein of Rb line; assay: as above; assay type: biochemical, Oryza sativa var. Kinmaze; conditions: I50 of the resistant mutant divided by I50 of the wild type
Method: as §3, §4, §5, §6, §7, §8

[4] = system: Vg line resistant mutant rice culture cells; assay: Growth of rice culture cells (relative wet weight of callus) in the presence of herbicide, Vg line; assay type: cell-based, Oryza sativa var. Kinmaze
Method: as §1, §2

[5] = system: wild type (Kinmaze) rice culture cells; assay: Growth of rice culture cells (relative wet weight of callus) in the presence of herbicide, wild type; assay type: cell-based, Oryza sativa var. Kinmaze
Method: Approximately 1.5 g (wet weight) of the resistant mutant was transplanted into a 200 ml Erlenmeyer flask supplemented with 50 ml of a MS-2,4-D liquid medium and bispyribac-sodium at a certain concentration, followed by culturing at approximately 27° C. for a certain period. The wet weight of the callus was measured periodically. The relative amount of increase was determined based on the wet weight of the transplanted resistant mutant. In addition, the experiment was performed three times with different bispyribac-sodium concentrations, and the standard error was calculated. FIGS. 3 to 6 show the relation between changes in bispyribac-sodium concentration and the relative weight on day 8 or 12 in the resistant mutant. As a control, a similar experiment was conducted using the wild type (Kinmaze).
Also, in the case of using chlorsulfuron instead of bispyribac-sodium, the growth rates of the wild type and the resistant mutants were measured as described above. […] Further, FIGS. 9 to 12 show the relation between changes in chlorsulfuron concentration and relative weight on day 8 or 10 in the resistant mutants, that is, Rb line, Sr line, Ga line and Vg line.

[6] = system: Ga line resistant mutant rice culture cells; assay: Growth of rice culture cells (relative wet weight of callus) in the presence of herbicide, Ga line; assay type: cell-based, Oryza sativa var. Kinmaze
Method: as §1, §2

[7] = group supplemented with 10 μM, day 8 or 12
[8] = group supplemented with 1 nM herbicide, day 8 (bispyribac-sodium) or day 9 (chlorsulfuron)

`COc1cc(OC)nc(Oc2cccc(Oc3nc(OC)cc(OC)n3)c2C(=O)O)n1` [bispyribac-sodium] was tested, and the “growth of Rb line (relative weight)” value [1, 7] was “almost none of the growth”, the IC50 [2] was 247000 nM and the “RS ratio Rb” value [3] was 43900. For the same compound, the “effect on the growth of Vg line” value ([4]; compared with wild type, day 8 or 12) was “smaller than that in the wild type”, the “growth of the wild type (relative weight)” value [5, 8] was “not inhibited” and the “growth of the wild type (relative weight)” value ([5]; group supplemented with 10 nM or more, day 8) was “inhibited”. For the same compound, the “growth of Ga line (relative weight)” value [6, 7] was “almost none of the growth”.

For `COc1nc(C)nc(NC(=O)NS(=O)(=O)c2ccccc2Cl)n1` [chlorsulfuron], the “growth of Rb line on addition of herbicide (relative weight)” value ([1]; day 8 or 10) was “not inhibited so much”, the IC50 [2] was 32000 nM and the “RS ratio Rb” value [3] was 1850. The “growth of Vg line on addition of herbicide (relative weight)” value ([4]; day 8 or 10) was “not inhibited so much”, the “growth of the wild type (relative weight)” value [5, 8] was “inhibited” and the “growth of Ga line on addition of herbicide (relative weight)” value ([6]; day 8 or 10) was “not inhibited so much”.

For `CC(C)C1(C)N=C(c2nc3ccccc3cc2C(=O)O)NC1=O` (stereo not drawn) [imazaquin], the IC50 [2] was 609000 nM and the “RS ratio Rb” value [3] was 411.
